Source: patent US20240309326A1, “Method of Isolating Adipose-Derived Cell Lines and Uses Thereof” (AGENCY FOR SCIENCE, TECHNOLOGY AND RESEARCH, priority 2021, published 2024)

Tested on: Ph9F-1x
Test: Adipogenesis of fish adipose-derived cell line (AdipoRed / Hoechst 33342 staining)
Type: cell-based, Pangasianodon hypophthalmus
Conditions: for adipogenesis induction efficiency: addition to adipogenesis induction composition (FIGS. 22 and 25)
Procedure: Adipogenesis of adipose-derived cells were induced. The cells were resuspended at cell density of 100,000 cells/ml of complete growth medium and seeded at 100 μl/well into gelatin-coated 96-well flat-bottom black plates. The cells were incubated at 28° C. in a humidified atmosphere containing 5% CO2. […] After 3 and 6 days of adipogenic induction, the cells were induced with DMEM, 15% FBS, 0.1% fish serum, 300 U/ml of penicillin, 300 μg/mL of streptomycin, and adipogenic induction cocktail 2, containing 167 nM of insulin. Linoleic acid-oleic acid albumin (LAOA, Sigma-Aldrich), docosahexaenoic acid (DHA, Cayman Chemical), eicosapentaenoic acid (EPA, Cayman Chemical), oleic acid albumin (OAA, Sigma Aldrich), and linoleic acid albumin (LAA, Sigma Aldrich) can also be added to the adipogenic induction cocktail, if required. […] The cells were imaged using N-STORM/TIRF microscope and analysed using NIS-Element software.

[1] = 100 μM vitamin, Essential 6, fish serum, LAOA, IBMX, dexamethasone, after 6 days

Compound | percentage of matured adipocytes [1] | total lipid content [1] | further results
CC(C)(CO)[C@H](O)C(=O)NCCC(=O)O [D-pantothenic acid] | did not significantly enhance | did not significantly enhance | –
CC/C=C\C/C=C\C/C=C\C/C=C\C/C=C\C/C=C\CCC(=O)O [DHA, docosahexaenoic acid] | – | – | nuclei count after adipogenesis (100 μM, final 3 days of adipogenesis): significantly reduced
O=C(O)CCCC[C@@H]1SC[C@@H]2NC(=O)N[C@@H]21 [biotin] | did not significantly enhance | did not significantly enhance | –
O=C1O[C@H]([C@@H](O)CO)C(O)=C1O [vitamin C] | – | – | adipogenesis induction efficiency: no adverse effects
C=C1CC[C@H](O)C/C1=C/C=C1\CCC[C@]2(C)[C@@H]([C@H](C)CCCC(C)C)CC[C@@H]12 [vitamin D3] | did not significantly enhance | did not significantly enhance | total lipid content of matured adipocyte (intensity) (100 μM, 6 days, AdipoRed fluorescence intensity, borderline statistical significance): 3.5×10^9; adipogenesis induction efficiency: no adverse effects
CC(=O)Oc1c(C)c(C)c2c(c1C)CCC(C)(CCC[C@H](C)CCC[C@H](C)CCCC(C)C)O2 (stereo partly drawn) [α-tocopherol acetate] | did not significantly enhance | did not significantly enhance | –
oleic acid albumin [OAA] | – | – | percentage of matured adipocytes (100 μM, 6 days, as compared to LAA): significantly enhanced
